Data from patent US20010019832A1, “Methods for identification using U0126” (priority 2000, published 2001).

How the values were obtained:
L6 cells [1] = experiment: Glucose uptake rate in L6 cells; assay type: cell-based, rat; settings: 5 mM glucose; for Glucose uptake rate: U0126 10 μM or PD98059 10 μM for 20 h, insulin 176 nM 1 h before
Experimental: (§1) Glucose uptake was determined as described by Hundal et al. (1994) Biochem. J. 297: 289-295. Briefly, after incubation with insulin for one hour, cell monolayers were rinsed with glucose-free PBS. Glucose uptake was quantified by incubating the cells in the presence of 1 μCi/ml ^3H-2-deoxy-glucose in PBS for 8 min. Uptake of 2-deoxy-glucose was terminated by rapidly aspirating the medium, followed by two successive washes of cell monolayers with ice cold PBS. The cells were lysed in 0.5 M NaOH, followed by liquid scintillation counting. Rates of transport were normalized for protein content in each well.
Glucose uptake rate in L6 cells, in the presence of 5 mM glucose, was determined. The cells were incubated in serum-free medium supplemented with U0126 (10 μM), PD98059 (10 μM) or wortmannin (100 nM) for 20 h. Insulin (176 nM) was added 1 h before the determination of glucose uptake rate. Glucose uptake was determined as described above.

[2] = system: human skeletal muscle cells (hSkMC); experiment: Glucose uptake rate in human skeletal muscle cells; assay type: cell-based; settings: 5 mM glucose, insulin 176 nM or U0126 10 μM added 30 min before
Experimental: as §1
Glucose uptake rate in human skeletal muscle cells (hSkMC), in the presence of 5 mM glucose, was determined. The cells were incubated in serum-free medium (PromoCell) for 2 h. Insulin (176 nM) or U0126 (10 μM) were added 30 min before determination of glucose uptake rate.

SH-SY5Y cells = experiment: Glucose uptake rate in SH-SY5Y cells; assay type: cell-based, human; settings: 5 mM glucose, U0126 10 μM or insulin 176 nM added 1 h before
Experimental: as §1
Glucose uptake rate in SH-SY5Y cells in the presence of 5 mM glucose was determined. The cells were incubated in serum-free medium over night. Approximately 20 h later U0126 (10 μM), wortmannin (100 nM) or insulin (176 nM) were added, 1 h before the determination of glucose uptake rate.

L6 cells [3] = experiment: Glucose oxidation in L6 cells (14CO2 trapping); assay type: cell-based, rat; settings: 5 mM glucose; for Glucose oxidation: insulin 176 nM or U0126 10 μM added 1 h before
Text: (§2) The principle of the used glucose/free fatty acid, (FFA) oxidation assay is based on the fact that one of the final products along metabolic pathways of these two substrates is carbon dioxide. Since the substrates are uniformly ^14C labeled, the radioactivity in carbon dioxide trap is a direct measure of metabolic activity in studied cells (Rodbell, M. (1964) J. Biol. Chem. 239: 375-380).
(§3) As further described in International Patent Application No. PCT/SE00/02680, filed Dec. 27, 2000, cells were cultivated until sub-confluence in T-25 Costar flasks. Prior to the experiment, the cells were deprived of serum for 6 hours in DMEM medium containing 5 mM glucose. 3 ml of medium supplemented with (U-^14C)-glucose or (U^14C)-palmitic acid (0.2 μCi/ml) were added to each flask. A filter paper (1.5×5.5 cm) soaked in hyamine solution was rolled up, blotted on a paper towel to remove excess of fluid, and placed carefully into the tube of the device described in International Patent Application No. PCT/SE00/02680. The tube was mounted in the flasks, the screw caps were tightened and cells were incubated at 37° C. for a suitable time period. The reaction was terminated by adding sulfuric acid to the culture medium and the cells were incubated for additional 60 min. The filter paper was removed, cut into small pieces and transferred to scintillation vials. Methanol (0.2 ml) was added to each vial to increase the solubility of hyamine-CO2 in the scintillation fluid. Finally the radioactivity was measured. The remaining cells were washed briefly with ice cold PBS, solubilized with 1 M KOH and the protein content was determined by the Bradford method (Bradford, M. M. (1976) Anal. Biochem. 72: 248-254).
Glucose oxidation in L6 cells in the presence of 5 mM glucose was determined as described in “Experimental Methods”. One hour prior to determination of glucose oxidation, insulin or U0126 was added to a concentration of 176 nM or 10 μM, respectively.

L6 cells [4] = experiment: Palmitate oxidation in L6 cells (14CO2 trapping); assay type: cell-based, rat; settings: for Palmitate oxidation in the presence of 5 mM glucose: data not shown
Text: as §2, §3
In a cell system, insulin resistance can be provoked experimentally by raising the concentrations of glucose, fat or both in the medium, or by treating the cells with the cytokine Tumor Necrosis Factor alpha (TNF alpha) before insulin stimulation. […] Palmitate oxidation was determined as described in “Experimental methods”. […]

PKB = PKB activity in L6 cells; assay type: cell-based, rat; settings: differentiated L6 cells, incubated 10 min
INS-1 cells = settings: U0126 10 μM, 24 hours
Experimental: Insulin secretion in INS-1 cells was determined. INS-1 cells were seeded in 24-well plates. Thirty minutes before assay the glucose concentration was decreased to 2.8 mM. After the incubation in low glucose medium, glucose (up to 16 mM) or U0126 (10 μM) were added. After 24 hours, samples were collected and analyzed in the rat insulin ELISA.

MEK½ = settings: Favata et al. 1998; cited from earlier work
AP-1 = settings: Duncia et al. 1998; cited from earlier work

For `N#CC(=C(N)Sc1ccccc1N)C(C#N)=C(N)Sc1ccccc1N` [U0126, 1,4-diamino-2,3-dicyano-1,4-bis [2-aminophenylthio] butadiene], the “Glucose uptake rate, U0126 and insulin incubated together” value (L6 cells [1]; U0126 10 μM 20 h plus insulin 176 nM 1 h) was “no further increase compared to U0126 alone”, the Glucose uptake rate (L6 cells [1]) was “increased glucose uptake” and the Glucose uptake rate [2] was “increase glucose uptake”. For the same compound, the Glucose uptake rate (SH-SY5Y cells) was “increased glucose uptake”, the “Glucose oxidation, U0126 and insulin incubated together” value (L6 cells [3]; U0126 10 μM plus insulin 176 nM) was “A small increase” and the Glucose oxidation (L6 cells [3]) was “increased glucose oxidation”. The “Palmitate oxidation in the presence of 5 mM glucose” value (L6 cells [4]) was “decreased palmitate oxidation”, the “Palmitate oxidation during insulin resistant conditions” value (L6 cells [4]; 12 mM glucose and 480 μM palmitate for 20 hours, U0126 10 μM 1 h before) was “decreased palmitate oxidation” and the PKB activity (PKB) was “no effect”. The Insulin secretion (INS-1 cells) was “increased insulin secretion”, the “Inhibition of MEK½” value (MEK½) was “specifically inhibits MEK½ in both the inactive and active forms” and the “Inhibition of AP-1 transactivation” value (AP-1) was “inhibitor of AP-1 transactivation”.

With “insulin: Bovine insulin purchased from Gibco Laboratories” the Glucose uptake rate (L6 cells [1]) was “increased glucose uptake”, the Glucose uptake rate [2] was “increase glucose uptake” and the Glucose uptake rate (SH-SY5Y cells) was “increased glucose uptake”. For the same compound, the Glucose oxidation (L6 cells [3]) was “increased glucose oxidation”, the “Palmitate oxidation in the presence of 5 mM glucose” value (L6 cells [4]) was “decreased palmitate oxidation” and the PKB activity (PKB) was “increased PKB activity three-fold”.
